Experimental data from patent US20240002401A1, “IMIDAZOTHIAZOLE COMPOUNDS, PHARMACEUTICAL COMPOSITIONS, AND USES THEREOF” (GUANGZHOU HENOVCOM BIOSCIENCE CO., LTD., priority 2020, published 2024).

Key:
ATX = ATX (Homo sapiens, UniProt Q13822); assay: Enzyme activity screening in vitro with LPC as substrate (Amplex Red fluorescence); format: biochemical; details: inhibitory activity against ATX
Description: Analysis In Vitro: LPC was Used as Substrate for Screening Enzyme Activity
Principle: Lysophosphatidylcholine (LPC) as substrate is hydrolyzed by using the activity of lysoPLD enzyme, to produce lysophosphatidic acid (LPA) and choline, which is oxidized to produce H2O2 under the action of choline oxidase. In presence of horse radish peroxidase (HPR), Amplex Red reagent is reacted with H2O2 in a quantitative chemistry ratio of 1 to 1, to produce strong fluorescence products, which are detected by a fluorescent quantitative test.
20 μl of the above mixed solution 1 was added to each hole of an experiment board, […]. The compounds diluted with DMSO were transferred into an experiment board with Echo550. The reaction buffer solution was used for preparing a mixed solution 2 of […] LPC and 400 μM Amplex Red in a final concentration. 20 μl of the above mixed solution 2 was added to each hole of the experiment board. After addition, the experiment board was shook for 30 seconds on a shaker, and incubated for 30 minutes. Envision was used to read the fluorescence signals with an exciting light at 530 nm and emitted light at 590 nm.

[1] = Pharmacokinetics test in mice; format: in vivo; details: male SD mice; for F: absolute bioavailability, oral 5 mg/kg vs intravenous 1 mg/kg; for AUC / half-life: mouse, plasma
Description: Pharmacokinetics Test in Mice
Male SD mice were selected for pharmacokinetics test study, plasma concentration at different time points were quantitatively determined by LC/MS/MS method after the mice were intravenously injected and orally administrated with the compounds to be tested, thereby evaluating pharmacokinetics characteristic of the compounds to be tested in SD mice.
SD mice (free food and drink, 6 to 8 weeks old) were intravenously administrated via a foot injection with a clear solution of the compounds to be tested, alternatively, SD mice (free food and drink, 6 to 8 week old) were intragastrically administrated with a suspension of the compounds to be tested. Blood samples were collected from the tail veins of the mice 0.083, 0.25, 0.5, 1, 2, 4, 6, 8, 10, and 24 hours after administration, and each sampling was 0.15 mL. All collected blood samples were placed into centrifuge tubes with EDTA-K2, turned upside and down to mix the anticoagulant with the blood well. The plasma was separated by centrifugation at 1500 g for 10 min at 4° C. within […]. The plasma sample was transferred into a new centrifuge tube and stored at −90° C. to −60° C. until the analysis was performed. LC-MS/MS was used to measure the blood concentration of the compounds to be tested of the present disclosure, and the pharmacokinetic parameters, as well as absolute bioavailability, were calculated by a non-compartment model in Pharsight Phoenix 8.0 software, as shown in Table 2.

[2] = Intravenous injection (1 mg/kg)

Row | SMILES | IC50 (ATX) [nM] | F [1] [%] | AUC [1, 2] [ng·h/mL] | half-life [1, 2] [min] | AUC ([1]; Oral administration (5 mg/kg)) [ng·h/mL] | half-life ([1]; Oral administration (5 mg/kg)) [min]
1 | CCc1nc2sc(C3CCN(CC(=O)N4CC(O)C4)CC3)cn2c1N(CC)c1nc(-c2ccc(F)cc2)c(C#N)s1 [Embodiment 1, 2-(ethyl(6-ethyl-2-(1-(2-(3-hydroxyazetidin-1-yl)-2-oxoethyl)piperidin-4-yl)imidazo[2,1-b]thiazol-5-yl)amino)-4-(4-fluorophenyl)thiazole-5-carbonitrile] | 0.01 to 100 | 70 | 1670 | 251 | 5800 | 193
2 | CCc1nc2sc(C3CCN(CC(=O)N4CC(O)C4)CC3)cn2c1N(CC1CC1)c1nc(-c2ccc(F)cc2)c(C#N)s1 [Embodiment 2, 2-(cyclopropylmethyl(6-ethyl-2-(1-(2-(3-hydroxyazetidin-1-yl)-2-oxoethyl)piperidin-4-yl)imidazo[2,1-b]thiazol-5-yl)amino)-4-(4-fluorophenyl) thiazole-5-carbonitrile] | 0.01 to 100 | 54 | 972 | 170 | 2720 | 218
3 | [2H]C([2H])([2H])C([2H])([2H])N(c1nc(-c2ccc(F)cc2)c(C#N)s1)c1c(CC)nc2sc(C3CCN(CC(=O)N4CC(O)C4)CC3)cn12 [Embodiment 7, 2-((ethyl-d5)(6-ethyl-2-(1-(2-(3-hydroxyazetidin-1-yl)-2-oxoethyl)piperidin-4-yl)imidazo[2,1-b]thiazol-5-yl)amino)-4-(4-fluorophenyl)thiazole-5-carbonitrile] | 0.01 to 100 | 65 | 1480 | 238 | 4810 | 169
4 | CCc1nc2sc(C3CCN(CC(=O)NCC(F)F)CC3)cn2c1N(CC)c1nc(-c2ccc(F)cc2)c(C#N)s1 [Embodiment 11, 2-(4-(5-((5-cyano-4-(4-fluorophenyl)thiazol-2-yl)(ethyl)amino)-6-ethylimidazo[2,1-b]thiazol-2-yl)piperidin-1-yl)-N-(2,2-difluoroethyl)acetamide] | 0.01 to 100 | 42 | 907 | 281 | 1730 | 264
5 | CCc1nc2sc(C3CCN(CC(=O)NC4COC4)CC3)cn2c1N(CC)c1nc(-c2ccc(F)cc2)c(C#N)s1 [Embodiment 21, 2-(4-(5-((5-cyano-4-(4-fluorophenyl)thiazol-2-yl)(ethyl)amino)-6-ethylimidazo[2,1-b]thiazol-2-yl)piperidin-1-yl)-N-(3-oxacyclobutyl)acetamide] | 0.01 to 100 | 114 | 1040 | 199 | 5500 | 157
6 | CCc1nc2sc(C3CCN(CC(=O)N4CCOCC4)CC3)cn2c1N(CC)c1nc(-c2ccc(F)cc2)c(C#N)s1 [Embodiment 22, 2-(ethyl(6-ethyl-2-(1-(2-morpholino-2-oxoethyl)piperidin-4-yl)imidazo[2,1-b]thiazol-5-yl)amino)-4-(4-fluorophenyl)thiazole-5-carbonitrile] | 0.01 to 100 | 39 | 649 | 274 | 1260 | 251
7 | CCc1nc2sc(C3CCN(CC(=O)NC4CCOCC4)CC3)cn2c1N(CC)c1nc(-c2ccc(F)cc2)c(C#N)s1 [Embodiment 23, 2-(4-(5-((5-cyano-4-(4-fluorophenyl)thiazol-2-yl)(ethyl)amino)-6-ethylimidazo[2,1-b]thiazol-2-yl)piperidin-1-yl)-N-(tetrahydro-2H-pyran-4-yl)acetamide] | 0.01 to 100 | 70 | 1180 | 251 | 4190 | 236
8 | CCc1nc2sc(C3CCN(CC(=O)N4CC(O)C4)CC3)cn2c1N(c1nc(-c2ccc(F)cc2)c(C#N)s1)C1CC1 [Embodiment 24, 2-(cyclopropyl(6-ethyl-2-(1-(2-(3-hydroxyazetidin-1-yl)-2-oxoethyl)piperidin-4-yl)imidazo[2,1-b]thiazol-5-yl)amino)-4-(4-fluorophenyl)thiazole-5-carbonitrile] | 100 to 500 | 43 | 1170 | 128 | 2520 | 134
9 | CCc1nc2sc(C3CCN(CC(=O)N4CC(O)C4)CC3)cn2c1N(c1nc(-c2ccc(F)cc2)c(C#N)s1)C(C)C [Embodiment 25, 2-((6-ethyl-2-(1-(2-(3-hydroxyazetidin-1-yl)-2-oxoethyl)piperidin-4-yl)imidazo[2,1-b]thiazol-5-yl)(isopropyl)amino)-4-(4-fluorophenyl)thiazole-5-carbonitrile] | 0.01 to 100 | 55 | 732 | 187 | 1900 | 230
